Laboratory results taken from US20170368089A1, “COMPOSITION FOR PREVENTING OR TREATING COLITIS” (UNIVERSITY-INDUSTRY COOPERATION GROUP OF KYUNG HEE …, priority 2012, published 2017).

What was measured:
[1] = test system: model animal with acute colitis induced by TNBS; experiment: Acute colitis induced by TNBS in mice, weight change and colon appearance (macroscopic score, colon length), third experiment; format: in vivo, male mice (C57BL/6); conditions: Table 12, TNBS-treated mice, 3 days
Protocol: All the mice were bred under the controlled environmental conditions of 50 ±10% of humidity and 20 to 22° C. of temperature, and the lighting was repeatedly on for 12 hours and off for 12 hours. A feed for a standard experiment (Samyang, Korea) was used as a feed, and water was freely taken. For all the experiments, one group was 6 mice. […] Meanwhile, 0.1 ml of normal saline solution was orally administered to the normal group. Since then, from the next day, the sample dissolved in normal saline solution was orally administered in the volume that was decided in advance one time a day for 3 days. At the next day after completing the sample administration, the experimental animals were suffocated to death with carbon dioxide, and the colon from appendix to the region just before the anus was removed from the colon region. At this time, as a medicine sample, the experiments using the butanol-soluble fraction of the Anemarrhena asphodeloides Bunge extract, Mangiferin, and a combined extract were separately performed at a distance of time, respectively, and the effects of the medicine samples on preventing or treating colitis were reasonably analyzed based on the group supplied with normal saline solution instead of a specific medicine in the model animals with acute colitis induced by TNBS for each of the experiments. The sample administration to the model animals with colitis induced by TNBS was stopped, and at the next day, the weights of the experimental animals were measured, and then, the measured weights were compared with the initial weights to calculate the change amounts of weights. The scores about the removed colons were estimated by observing the appearances and the lengths of the colons according to the following criteria (Hollenbach, and the like, the criteria about the level of colon in 2005) as listed in Table 11. At this time, as a positive control group, the group administered with Mesalazine (Sigma) was used. In addition, some of the content in the colon was collected in order to analyze the rumen microorganisms, and then, was stored in a freezer of −80° C. […]

[2] = test system: Myeloperoxidase (MPO); experiment: MPO activity of colon tissue (mouse MPO ELISA kit), TNBS colitis, first experiment; format: in vivo, ICR male mice; conditions: TNBS-treated mice, 10 mg/kg orally, 3 days
Protocol: Among the experimental groups, one group was set as a normal group, and for the experimental animals in other groups, colitis was induced with 2,4,6-trinitrobenzenesulfonic acid (TNBS). In detail, after lightly anesthetizing the experimental animals with ether, 0.1 ml of the solution prepared by mixing […] of 2,4,6-Trinitrobenzene sulfonic acid (NBS) solution with 50% ethanol was injected into the colon through the anus using a syringe having 1 ml volume and oval point, respectively; and then, the syringe was vertically picked up, and then, maintained for 30 seconds to induce the inflammation. Meanwhile, 0.1 ml of normal saline solution was orally administered to the normal group. Since then, from the next day, the sample dissolved in normal saline solution was orally administered in the volume that was decided in advance one time a day for 3 days. At the next day after completing the sample administration, the experimental animals were suffocated to death with carbon dioxide, the colon from appendix to the region just before the anus was removed from the colon region.
200 μl of lysis buffer was added to 100 mg of colon tissue, and then, the colon tissue was homogenized. Since then, the homogenized colon tissue was centrifuged under the conditions of 4° C. and 13000 rpm for 15 minutes, and then, the supernatant thereof was obtained. In the supernatant, the MPO activity was measured using a mouse MPO assay ELISA kit (Hbt HK210, USA). 100 μl of the supernatant was added in a 96 well plate, and then, reacted at room temperature for 1 hour. After completing the reaction, the plate was overturned and emptied; was repeatedly washed three times with 200 μl of washing buffer solution; 100 μl of diluted tracer was added thereto; and then the reaction was performed at room temperature for 1 hour. After completing the reaction, the plate was overturned and emptied; and then each well in the plate was washed using 200 μl of washing buffer solution. After repeatedly performing the washing processes three times using 200 μl of washing buffer solution, 100 μl of diluted streptavidin-peroxidase conjugate was added thereto, and then, the reaction was performed at room temperature for 1 hour. After completing the reaction, the plate was overturned and emptied, and then, each well in the plate was washed with 200 μl of washing buffer solution. After the washing processes were repeatedly performed three times using 200 μl of washing buffer solution, 100 μl of TMB substrate solution was added thereto; the plate was wrapped in an aluminum foil to block out the light; and then, the reaction was performed at room temperature for 30 minutes. Since then, 100 μl of a stop solution was added to stop the reaction, and then, the absorbance was measured at 450 nm using an ELISA reader.

[3] = test system: model animal with acute colitis induced by TNBS; experiment: Acute colitis induced by TNBS in mice, appearance analysis of colon (colon length, macroscopic score), first experiment; format: in vivo, ICR male mice; conditions: Table 3 (group 2); TNBS-treated mice, 10 mg/kg orally, 3 days
Protocol: 4-week ICR male mice (24 to 27 g) were purchased from OrientBio. All the mice were bred under the controlled environmental conditions of 50±10% of humidity and 25±2° C. of temperature, and the lighting was repeatedly on for 12 hours and off for 12 hours. A feed for a standard experiment (Samyang, Korea) was used as a feed, and water was freely taken. For all the experiments, one group was 6 mice. […] Meanwhile, 0.1 ml of normal saline solution was orally administered to the normal group. Since then, from the next day, the sample dissolved in normal saline solution was orally administered in the volume that was decided in advance one time a day for 3 days. At the next day after completing the sample administration, the experimental animals were suffocated to death with carbon dioxide, the colon from appendix to the region just before the anus was removed from the colon region. The scores about the removed colons were estimated by observing the appearances and the lengths of the colons according to the following criteria (Hollenbach, and the like, the criteria about the level of colon in 2005) as listed in Table 1. […] In addition, some of the content in the colon was collected in order to analyze the rumen microorganisms, and then, was stored in a freezer of −80° C. From the tissue of colon, the content in the colon was completely removed and then the tissue of colon was washed with normal saline solution. Since then, some of the tissue was fixed with 4% formaldehyde fixing solution in order to be used as a sample for a histopathological examination, and the rest was stored in a freezer of −80° C. for a molecular biological analysis.

For `Nc1ccc(O)c(C(=O)O)c1` [mesalazine, Mesalazine], the “Colon length (Percentage to group supplied with normal saline solution after treating TNBS)” value ([1]; 10 mg/kg orally) was 155%, the “Macroscopic score (Percentage to group supplied with normal saline solution after treating TNBS)” value ([1]; 10 mg/kg orally) was 61.1% and the “Body weight (Percentage to group supplied with normal saline solution after treating TNBS)” value ([1]; one time dosage amount 10 mg/kg orally) was 113.5%. The MPO activity ([2]; Table 2 (group 1)) was 1.8 ± 0.2 μUnit/mg, the MPO activity ([2]; Table 3 (group 2)) was 0.2 ± 0.1 μUnit/mg and the Colon length [3] was 7.1 ± 0.46 cm.
